Assay results taken from patent publication US20150259313A1, “Antitumor Agent” (priority 2014, published 2015).
“Also recorded” adds a separate entry of the source. Like-named read-outs stand apart in the source and are kept apart here.

Key:
[1] = tested on: hedgehog signaling pathway; assay: Gli luciferase reporter assay in Gli Reporter-NIH3T3 cells stimulated with mShh; assay type: cell-based; details: mShh 1 μg/ml, 27 hours, read-out: IC50 for inhibition of the hedgehog signaling pathway
Procedure: In vitro test: Experimental method to measure the inhibition of jervine on the hedgehog signaling pathway
Hedgehog signaling pathway Gli Reporter-NIH3T3 cells were cultured in DMEM medium with 10% Calf serum, 1% Penn-strep, 500 μg/ml of Geneticin.
To perform the Gli luciferase reporter assay, Gli Reporter-NIH3T3 cells were seeded at 25,000 cells per well into white clear-bottom 96-well microplate in 100 μl of growth medium. Cells were incubated at 37° C. and 5% CO2 for overnight. Next day remove the medium from wells and add 45 μl of diluted inhibitor in assay medium (Opti-MEM Reduced Serum Medium+0.5% calf serum+1% non-essential amino acids+1 mM Na-pyruvate+10 mM HEPES+1% Pen/Strep) per well. Incubate cells at 37° C. in a CO2 incubator for 2 hours. Then add 5 μl of diluted mShh in assay medium to wells (final [mShh]=1 μg/ml). Add […] of assay medium to cell-free control wells. Cells were treated for 27 hours. […] Luminescence was measured using a luminometer(BioTek Synergy™ 2 microplate reader) 2.3 Data Analysis
Reporter assays in triplicate were performed at each concentration. The luminescence intensity data were analyzed using the computer software, Graphpad Prism. In the absence of the compound, the luminescence intensity (Lt) in each data set was defined as 100%. In the absence of cells, the luminescence intensity (Lb) in each data set was defined as 0%. […]

[2] = tested on: NCI-H2122 lung cancer xenograft; assay type: in vivo, BALB/c nude mice
Procedure: (§1) NCI-H2122 cells were cultured in RMPI1640 medium, A431 tumor cells were cultured in DMEM medium, all the medium were supplemented with 10% heat inactivated fetal bovine serum, all cells used EDTA containing trypsin, passaged twice a week, incubated at 37° C. in an atmosphere of 5% CO2 in air and cultured.
(§2) 110 BALB/c nude mice, female, 6-8 weeks old, 18-22 g in body weight, were purchased from Shanghai Laboratory Animal Center (SLAC, Shanghai, China). The mice were kept in individually ventilated cage (NC) systems at constant temperature and humidity, with 20.5-24.5° C. for temperature, 40-75% for humidity. With 4 animals in each cage, the size ogf the cage is 325 mm×210 mm×180 mm. The bedding material is corn cob, which is changed twice per week. Animals had free access to irradiation sterilized dry granule food and water during the entire study period. The food and water were changed twice per week. The identification labels for each cage contain the following information: number of animals, sex, strain, and date received treatment, study number, group number, and the starting date of the treatment. Animals were marked by ear coding. The experiments started one week after receiving the animals.
Each mouse were inoculated subcutaneously at the right flank region with NCI-H2122 tumor cells (5×10^7/ml), NCI-H1703 tumor cells (1×10^8/ml) and A431 tumor cells (5×10^7/ml), respectively in a mixture of phosphate-buffered saline and matrigel for tumor development via a 1 ml syringe. The treatments were started when the mean tumor size reached about 200 (150-250) mm^3. […]
8.1 Tumor size was measured twice weekly in two dimensions using a caliper, and the volume was expressed in mm^3 using the formula: V=0.5 a×b^2 where a and b are the long and short diameters of the tumor, respectively. […]
(§3) A one-way analysis of variance was performed followed by multiple comparison procedures. All data was analyzed using SPSS 18.0.*p <0.05 or **P<0.01 are generally considered statistically significant when compared with vehicle group.

[3] = tested on: A431 basal cell carcinoma xenograft; assay: A431 basal cell carcinoma xenograft tumor model, inoculated subcutaneously; assay type: in vivo, BALB/c nude mice; details: 40-80 mg/kg p.o. QD × 21 days
Procedure: as §1, §2
(§4) Each mouse were inoculated subcutaneously at the right flank region with NCI-H2122 tumor cells (5×10^7/ml), NCI-H1703 tumor cells (1×10^8/ml) and A431 tumor cells (5×10^7/ml), respectively in a mixture of phosphate-buffered saline and matrigel for tumor development via a 1 ml syringe. The treatments were started when the mean tumor size reached about 200 (150-250) mm^3.
(§5) After tumor volume reached 3000 mm^3 or average tumor volume reached 2000 mm^3, before experimental animals emaciated or coma, anesthesia and euthanasia will be performed. During the experiment, if the weight loss of experimental animal reaches 20%, administration will be discontinued and experimental animals will be observed until the weight returned to 10% range before restart of the administration. In this experiment, when the mean tumor volume reached 2000 mm^3 or at the end of 59 days after the administration, experimental animals will be anesthesiaed to collect tumor mass which will be weighed and photographed.
(§6) 8.1 Tumor size was measured twice weekly in two dimensions using a caliper, and the volume was expressed in mm^3 using the formula: V=0.5 a×b^2 where a and b are the long and short diameters of the tumor, respectively.
(§7) 8.2 T/C, percent value, T and C were the mean volume of the treated and control groups, respectively, on a given day.
as §3

A431 xenograft = assay: as above; assay type: in vivo, BALB/c nude mice
Procedure: as §1, §2, §4, §5, §6, §7, §3

[4] = tested on: BXPC-3 human pancreatic carcinoma xenograft; assay type: in vivo, BALB/c nude mice; details: BXPC-3 xenograft
Procedure: BXPC-3 tumor cells cultured in RMPI1640 medium supplemented with 10% heat inactivated fetal bovine serum, all cells used EDTA containing trypsin, passaged twice a week, incubated at 37° C. in an atmosphere of 5% CO2 in air and cultured.
40 BALB/c nude mice, female, 6-8 weeks old, 18-22 g in body weight, were purchased from Shanghai Laboratory Animal Center (SLAC, Shanghai, China).
Each mouse was inoculated subcutaneously at the right flank region with BXPC-3 tumor cells (5×10^7) in 0.1 ml of phosphate-buffered saline with matrigel via a 1 ml syringe for tumor development. The treatments were started when the mean tumor size reaches approximately 200 (150-250) mm^3 at 9 days after inoculation.

[5] = Pharmacokinetic study of jervine in mice; assay type: in vivo; details: CD-1 mice
Procedure: Orally dosed: A total of 3 male experimental CD-1 mice, approximately 8 weeks of age at receipt was administered jervine via oral gavage at 10 mg/kg. Blood samples (300 μL) were collected via cardiac puncture predose and at 2 minute, 5 minute, 15 minute, 0.5 hour, 1 hour, 2 hour, 4 hour, 8 hour, 24 hours postdose. Plasma was made form the blood samples in order to measure the concentration of jervine.

[6] = Maximum tolerated dose of jervine on BALB/c nude mice; assay type: in vivo; details: 14 days
Procedure: Result indicates the maximum tolerated dose of jervine is higher than 80 mg/kg for BALB/c mice.
Study the maximum tolerated dose of jervine on BALB/c nude mice 9 BALB/c nude mice were divided equally into 3 groups. The mice were orally dosed at 50 mg/kg, 80 mg/kg and 150 mg/kg by groups. […] It was initialy determinded that the maximum tolerated dose is higher than 80 mg/kg for BALB/c nude mice.

[7] = male, mouse, PO 10 mg/Kg, plasma

In the case of `CC1=C2C(=O)[C@H]3[C@@H](CC=C4C[C@@H](O)CC[C@@]43C)[C@@H]2CC[C@]12O[C@@H]1C[C@H](C)CN[C@H]1[C@H]2C` [jervine, Jervine], the IC50 [1] is reported as 0.05 µM, the “T/C value (tumor volume)” value ([2]; 40 mg/kg p.o. QD for 21 days) is reported as 0.79 and the “T/C value (tumor volume)” value ([2]; 60 mg/kg p.o. QD for 21 days) is reported as 0.701. The “T/C value (tumor volume)” value ([2]; 80 mg/kg p.o. QD for 21 days) was 0.594, the “side effects / weight loss of the mice” value [3] was “no obvious side effects; also recorded: no significant of weight lose” and the “T/C value (tumor volume)” value (A431 xenograft; 40 mg/kg p.o. QD for 21 days) was 0.52. The “T/C value (tumor volume)” value (A431 xenograft; 60 mg/kg p.o. QD for 21 days) was 0.80, the “T/C value (tumor volume)” value (A431 xenograft; 80 mg/kg p.o. QD for 21 days) was 0.82 and the “T/C value (tumor volume)” value ([4]; 20 mg/kg iv QD × 21 days) was 25.8%. For the same molecule, the “T/C value (tumor volume)” value ([4]; 40 mg/kg iv QD × 21 days) was 59.1%, the “T/C value (tumor volume)” value ([4]; 80 mg/kg iv QD × 21 days) was 54.2% and the “F (bioavailability)” value ([5]; PO 10 mg/Kg, 10 mg/kg) was 41.2%. For the same molecule, the bioavailability ([5]; male, CD-1, mouse, plasma, po, 10 mg/kg, read-out: F (bioavailability)) was 41%, the AUC(0-inf) [5, 7] was 2260 ng·h/mL and the AUC(0-t) [5, 7] was 1790 ng·h/mL. The Cmax [5, 7] was 368 ng/mL, the half-life ([5]; male, mouse, PO 10 mg/Kg, plasma, read-out: T½ (converted)) was 11.8 h and the animal deaths ([6]; 50 mg/kg oral) was “no animal dead”. The weight loss ([6]; 80 mg/kg oral gavage) was “no significant weight loss”, the animal deaths ([6]; 80 mg/kg oral) was “no animal die; also recorded: no animal dead” and the animal deaths ([6]; 150 mg/kg oral, 3 mice per group) was “Two”. For the same molecule, the MTD ([6]; mouse, in vivo, oral, BALB/c nude mice) was > 80 mg/kg.
